# Data published in US7300941B2, “Non-imidazole compounds” (Schering Corporation, priority 2000, dated 2007).
# Values joined by “and” are separate entries in the source; they are usually repeats but may differ in a detail not shown here. Equal values may be shown once.
# Target: T1, H3 receptors (Cavia porcellus, UniProt Q9JI35)
# T1 construct: The brain tissue was homogenized with a solution of 50 mM Tris, pH 7.5; from tissue; host or cells: guinea pig brain membranes
# Test: H3-Receptor Binding Assay
# Details: guinea pig brain membranes; 3 nM [3H]R-α-methyl histamine or 3 nM [3H]Nα-methyl histamine; 30° C., 30 min
# Description: H3-Receptor Binding Assay
# The source of the H3 receptors in this experiment was guinea pig brain. The animals weighed 400-600 g. The brain tissue was homogenized with a solution of 50 mM Tris, pH 7.5. The final concentration of tissue in the homogenization buffer was 10% w/v. The homogenates were centrifuged at 1,000×g for 10 min. in order to remove clumps of tissue and debris. The resulting supernatants were then centrifuged at 50,000×g for 20 min. in order to sediment the membranes, which were next washed three times in homogenization buffer (50,000×g for 20 min. each). The membranes were frozen and stored at −70° C. until needed.
# All compounds to be tested were dissolved in DMSO and then diluted into the binding buffer (50 mM Tris, pH 7.5) such that the final concentration was 2 μg/ml with 0.1% DMSO. Membranes were then added (400 μg of protein) to the reaction tubes. The reaction was started by the addition of 3 nM [^3H]R-α-methyl histamine (8.8 Ci/mmol) or 3 nM [^3H]N^α-methyl histamine (80 Ci/mmol) and continued under incubation at 30° C. for 30 min. Bound ligand was separated from unbound ligand by filtration, and the amount of radioactive ligand bound to the membranes was quantitated by liquid scintillation spectrometry. All incubations were performed in duplicate and the standard error was always less than 10%. Compounds that inhibited more than 70% of the specific binding of radioactive ligand to the receptor were serially diluted to determine a Ki (nM).
# T1 sequence (Q9JI35 whole entry): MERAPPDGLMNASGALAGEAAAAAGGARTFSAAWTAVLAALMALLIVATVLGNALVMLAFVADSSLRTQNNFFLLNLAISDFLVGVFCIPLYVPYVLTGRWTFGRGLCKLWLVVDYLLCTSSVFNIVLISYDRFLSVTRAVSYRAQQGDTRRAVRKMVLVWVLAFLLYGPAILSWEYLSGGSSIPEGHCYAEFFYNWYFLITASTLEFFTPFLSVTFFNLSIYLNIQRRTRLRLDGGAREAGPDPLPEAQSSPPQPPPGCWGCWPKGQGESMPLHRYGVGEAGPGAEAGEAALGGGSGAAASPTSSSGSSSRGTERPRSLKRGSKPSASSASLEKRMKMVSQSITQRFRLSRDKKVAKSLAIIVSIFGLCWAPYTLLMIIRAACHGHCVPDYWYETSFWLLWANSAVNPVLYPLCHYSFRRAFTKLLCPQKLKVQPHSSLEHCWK
row,Ki,Structure (SMILES)
1,0.25 to 33 nM,Nc1cc(CN2CCC(C(=O)N3CCC(c4noc5cc(F)ccc45)CC3)CC2)ccn1 [Compound 23]
2,0.25 to 33 nM and 0.25 to 16 nM,Nc1cc(CN2CCC(C(=O)N3CCC(C(=O)c4ccccn4)CC3)CC2)ccn1 [Compound 30]
3,0.25 to 33 nM and 0.25 to 16 nM,CON=C(c1ccccn1)C1CCN(C(=O)C2CCN(Cc3ccnc(N)c3)CC2)CC1 [Compound 31]
4,0.25 to 33 nM and 0.25 to 16 nM and 0.83 nM,CO/N=C(/c1ccccn1)C1CCN(C(=O)C2CCN(Cc3ccnc(N)c3)CC2)CC1 [Compound 32]
5,0.25 to 33 nM and 0.25 to 16 nM,CO/N=C(\c1ccccn1)C1CCN(C(=O)C2CCN(Cc3ccnc(N)c3)CC2)CC1 [Compound 33]
6,0.25 to 33 nM,CON=C(c1ccccn1)C1CCN(C(=O)C2CCN(C(C)c3ccnc(N)c3)CC2)CC1 (stereo not drawn) [Compound 53]
7,0.25 to 33 nM and 0.25 to 16 nM and 1.05 to 9.75 nM,CO/N=C(/c1ccccn1)C1CCN(C(=O)C2CCN([C@@H](C)c3ccnc(N)c3)CC2)CC1 [Compound 54]
8,0.25 to 33 nM and 0.25 to 16 nM and 1.05 to 9.75 nM,CO/N=C(/c1ccccn1)C1CCN(C(=O)C2CCN([C@H](C)c3ccnc(N)c3)CC2)CC1 [Compound 55]
9,0.25 to 33 nM and 0.25 to 16 nM,CO/N=C(\c1ccccn1)C1CCN(C(=O)C2CCN([C@@H](C)c3ccnc(N)c3)CC2)CC1 [Compound 56]
10,0.25 to 33 nM,CO/N=C(\c1ccccn1)C1CCN(C(=O)C2CCN([C@H](C)c3ccnc(N)c3)CC2)CC1 [Compound 57A]
11,0.25 to 33 nM,CON=C(c1ccc(Cl)cc1)C1CCN(C(=O)C2(O)CCN(Cc3ccnc(N)c3)CC2)CC1 [Compound 59]
12,0.25 to 33 nM,CON=C(c1ccc[n+]([O-])c1)C1CCN(C(=O)C2CCN(Cc3ccnc(N)c3)CC2)CC1 [Compound 92]
13,0.25 to 33 nM,CCON=C(c1ccc(Cl)cc1)C1CCN(C(=O)C2CCN(Cc3ccnc(N)c3)CC2)CC1 [Compound 212]
14,0.25 to 33 nM,CON=C(c1ccc(Cl)cc1)C1CCN(C(=O)N2CCN(Cc3ccnc(N)c3)CC2)CC1 [Compound 215]
15,0.25 to 33 nM,CON=C(c1cc(Cl)cc(Cl)c1)C1CCN(C(=O)C2CCN(Cc3ccnc(N)c3)CC2)CC1 [Compound 218]
16,0.25 to 33 nM,CON=C(c1ccccc1F)C1CCN(C(=O)C2CCN(Cc3ccnc(N)c3)CC2)CC1 [Compound 219]
17,0.25 to 33 nM,CON=C(c1ccccc1Cl)C1CCN(C(=O)C2CCN(Cc3ccnc(N)c3)CC2)CC1 [Compound 220]
18,0.25 to 33 nM,CO/N=C(\c1ccc(Cl)cc1)C1CCN(C(=O)C2CCN(Cc3ccnc(N)c3)CC2)CC1 [Compound 224]
19,0.25 to 33 nM and 0.25 to 16 nM,CO/N=C(/c1ccc(Cl)cc1)C1CCN(C(=O)C2CCN(Cc3ccnc(N)c3)CC2)CC1 [Compound 225]
20,0.25 to 33 nM,CO/N=C(/c1ccc(C(F)(F)F)cc1)C1CCN(C(=O)C2CCN(Cc3ccnc(N)c3)CC2)CC1 [Compound 226]
21,0.25 to 33 nM,CON=C(c1ccc(Cl)cc1)C1CCN(C(=O)C2CCN(C(C)c3ccnc(N)c3)CC2)CC1 (stereo not drawn) [Compound 227]

row,Ki,Structure (SMILES)
1,0.25 to 33 nM,CCON=C(c1ccc(F)cc1F)C1CCN(C(=O)C2CCN(Cc3ccnc(N)c3)CC2)CC1 [Compound 229]
2,0.25 to 33 nM,CON=C(c1ccc(Cl)cc1Cl)C1CCN(C(=O)C2CCN(C(C)c3ccnc(N)c3)CC2)CC1 (stereo not drawn) [Compound 233]
3,0.25 to 33 nM,CON=C(c1ccsc1)C1CCN(C(=O)C2CCN(Cc3ccnc(N)c3)CC2)CC1 [Compound 235]
4,0.25 to 33 nM and 0.25 to 16 nM,Nc1cc(CN2CCC(C(=O)N3CCC(C(=NO)c4ccccn4)CC3)CC2)ccn1 [Compound 237]
5,0.25 to 33 nM,CON=C(c1ccccc1)C1CCN(C(=O)C2CCN(Cc3ccnc(N)c3)CC2)CC1 [Compound 238]
6,0.25 to 33 nM and 0.25 to 16 nM,CCO/N=C(/c1ccccn1)C1CCN(C(=O)C2CCN(Cc3ccnc(N)c3)CC2)CC1 [Compound 246A]
7,0.25 to 33 nM,CCON=C(c1ccccn1)C1CCN(C(=O)C2CCN(Cc3ccnc(N)c3)CC2)CC1 [Compound 246]
8,0.25 to 33 nM,Nc1cc(CN2CCC(C(=O)N3CCC(c4noc5ncccc45)CC3)CC2)ccn1 [Compound 247]
9,0.25 to 33 nM,CON=C(c1ncccn1)C1CCN(C(=O)C2CCN(Cc3ccnc(N)c3)CC2)CC1 [Compound 248]
10,0.25 to 33 nM,CON=C(c1cccc(S(=O)(=O)N(C)C)c1)C1CCN(C(=O)C2CCN(Cc3ccnc(N)c3)CC2)CC1 [Compound 251]
11,0.25 to 33 nM and 0.25 to 16 nM and 1.05 to 9.75 nM,CO/N=C(/c1csc(C)n1)C1CCN(C(=O)C2CCN(Cc3ccnc(N)c3)CC2)CC1 [Compound 253A]
12,0.25 to 33 nM,CON=C(c1csc(C)n1)C1CCN(C(=O)C2CCN(Cc3ccnc(N)c3)CC2)CC1 [Compound 253]
13,0.25 to 16 nM,CO/N=C(/c1ccc(Cl)cc1)C1CCN(C(=O)C2CCN(Cc3ccncc3)CC2)CC1 [Compound 273]
14,0.25 to 33 nM,O=C(C1CCN(Cc2ccncc2)CC1)N1CCC(/C(=N\O)c2ccc(F)cc2)CC1 [Compound 275]
15,0.25 to 16 nM,CON=C(c1ccc(Cl)cc1)C1CCN(C(=O)C2CCN(Cc3ccnc(N)c3)CC2)CC1 [Compound 280]
16,0.25 to 33 nM and 0.25 to 16 nM and 1.05 to 9.75 nM,CO/N=C(/c1ccccn1)C1CCN(C(=O)C2CCN(Cc3cnc(N)nc3)CC2)CC1 [Compound 287]
17,0.25 to 33 nM and 0.25 to 16 nM,CON=C(c1ccccn1)C1CCN(C(=O)C2CCN(Cc3ccncc3N)CC2)CC1 [Compound 296]
18,0.25 to 33 nM and 0.25 to 16 nM,CO/N=C(/c1ccccn1)C1CN(C(=O)C2CCN(Cc3ccnc(N)c3)CC2)C1 [Compound 301]
19,0.25 to 33 nM and 0.25 to 16 nM,CON=C(C1CCCCC1)C1CCN(C(=O)C2CCN(Cc3ccnc(N)c3)CC2)CC1 [Compound 309]
20,0.25 to 33 nM and 0.25 to 16 nM,Nc1cc(CN2CCC(C(=O)N3CCC(C(=O)c4ccc5ccccc5n4)CC3)CC2)ccn1 [Compound 312]
21,1.05 to 9.75 nM,Nc1cc(CN2CCC(C(=O)N3CCC(/C(=N\OCC(F)(F)F)c4ncccc4F)CC3)CC2)ccn1 [Compound 320]
